Experiments:
BT474 cells = test: Drug screening, BT474 (RealTime-Glo MT); type: cell-based, human
Method: (§1) The following example describes experiments conducted to calculate IC50 values using a non-linear fit in Graphpad Prism by GraphPad Software Inc.
(§2) Cells grown in 2D were dosed starting after 24 h with either EHT-1864, AZD6482, Maritoclax, ZSTK474, Afatinib, TW-37, ABT-199, ABT-263 and Temsirolimus between 50 nM and up to 20 μM using an Hewlett-Packard (HP) D300 digital dispenser containing up to 0.2% DMSO then treated again 48 h following the first dose and ended after 72 h of treatment. Cells grown in 3D were dosed after 14 days with up to 0.2% DMSO every 48 h for 7 days. Cell viability was assessed by removing media and replacing it with 100 μL of sterile RealTime-Glo MT (Promega) which was diluted 1000× in media warmed to 37° C. After 1 h luminescence was detected using a Tecan microplate reader (Life Sciences) with 1 second integration time. Cell viability was calculated by subtracting background luminescence from all groups; treatment was compared to control wells, which received up to 0.2% DMSO. Data represents 3 independent replicates consisting of different cell passages for each condition to calculate the mean and standard deviation of cell viability.

MDA-MB-468 cells [1] = test: Drug screening, MDA-MB-468 (PrestoBlue); type: cell-based; conditions: Homo sapiens, treated 7 days
Method: as §1
Cells were dosed with 0.1, 1, 5, 20 and 50 μM Erlotinib-HCl containing 0.27% DMSO every 48 h for 7 days. Cell viability was assessed by removing media and replacing it with 150 μL of sterile, PrestoBlue which was diluted 10× in media warmed to 37° C. After 2.5 hours fluorescence was detected using a Tecan microplate reader (Life Sciences) by exciting at 570 nm and detected at 590 nm. Cell viability was calculated by subtracting background fluorescence from all groups; treatment was compared to control wells, which received 0.27% DMSO. Data represents 3 independent replicates consisting of different cell passages for each condition to calculate the mean and standard deviation of cell viability.

[2] = system: tumor derived mammary luminal epithelial cells; test: Drug screening with primary cells; type: cell-based; conditions: human patient tumour luminal B breast cancer cells
Method: as §2, with “dosed” for “dosed starting”, “Maritoclax” for “either EHT-1864, AZD6482, Maritoclax, ZSTK474, Afatinib, TW-37, ABT-199, ABT-263 and Temsirolimus”, “10” for “50”, “DMSO. IC50 values were calculated using a non-linear fit in Graphpad Prism by GraphPad Software Inc.” for “DMSO.”

MDA-MB-468 cells [3] = test: RGDOA cell adhesion assay; type: cell-based, human; conditions: RGDOA 250-1000 μM conjugated to HA-oxime hydrogels for 1 hour
Method: RGDOA Cell Adhesion assay: […] After gelling for 2 h at 37° C., 25 μL of 125, 250, 500, and 1000 μM RGDOA solutions in media described above were added to hydrogels. After treatment with RGDOA solutions for 1 h at 37° C., the media was removed and gels were washed three times with media at 25 μL per well. MDA-MB-468 cells were seeded on the surface of the hydrogels at a density of 3000 cells well^−1 in 25 μL of media and incubated for 30 min. Media was gently removed by pipette and replaced with PBS cooled to 4° C. […] Cells nuclei were stained with Hoechst 33342, 1/250 in PBS, 25 μL well^−1 for 4 h. Images were obtained using an Olympus confocal microscope at 10× magnification with z-stacks of 12 μm step size. Cell number was quantified using spot identification in Imaris 8 software by Bitplane. The fold change in cell number was calculated from control hydrogels containing no RGDOA peptide. A minimum of 3 independent replicates consisting of different cell passages were performed for each condition.

With `Cc1cc([C@@H](C)Nc2ccccc2C(=O)O)c2nc(N3CCOCC3)cc(=O)n2c1` [AZD6482] as the compound, how does the “responsiveness in HA-oxime versus Matrigel or 2D TCPS” value (BT474 cells; BT474 cells) read?
Its value is “more responsive”.

For `O=c1cc(CN2CCOCC2)occ1OCCCCCSc1ccnc2cc(C(F)(F)F)ccc12` [EHT-1864], which “responsiveness in HA-oxime versus Matrigel” value (BT474 cells; BT474 cells) is on record?
Its value is “more responsive”.

How did the “cell response between HA-oxime, Matrigel and 2D TCPS” value (BT474 cells; BT474 cells) turn out when `FC(F)c1nc2ccccc2n1-c1nc(N2CCOCC2)nc(N2CCOCC2)n1` [ZSTK474] was run?
Its value is “cell response did not always differ between the 3 culture conditions”.

Which IC50 (MDA-MB-468 cells [1]; MDA-MB-468, MDA-MB-468 cultured in 3D (Matrigel, HA-oxime+/−Ln) 21 days) does the source give for `C#Cc1cccc(Nc2ncnc3cc(OCCOC)c(OCCOC)cc23)c1` [erlotinib] here?
The IC50 was roughly 4.5 µM.

And the IC50 (MDA-MB-468 cells [1]; MDA-MB-468, MDA-MB-468 grown on 2D TCPS 21 days)?
Its IC50 is 37.6 µM.

Which results are given for `O=C(c1ccccc1O)c1[nH]c(Cl)c(Cl)c1-n1c(C(=O)c2ccccc2O)cc(Cl)c1Cl` [maritoclax]?
sensitivity in HA-oxime versus 2D TCPS (BT474 cells; BT474 cells): over tenfold more sensitive; IC50 (BT474 cells; BT474 cells cultured in 2D TCPS): 5.5 µM; IC50 (BT474 cells; BT474 cells cultured in HA-oxime): 0.59 µM; sensitivity in 3D HA-oxime versus 2D TCPS [2]: significantly more sensitive

For Acetyl-GRGDSPASSKK(OA)G [RGDOA], which “number of adherent MDA-MB-468 cells” value (MDA-MB-468 cells [3]) is on record?
The value was “increase in the number of adherent cells”.

— patent US12605461B2, “Hydrogel compositions and uses thereof” (priority 2019, dated 2026)
